Results reported in patent US8399419B2, “Antibacterial aminoglycoside analogs” (Achaogen, Inc., priority 2008, dated 2013).
Converted amounts (≈) assume the structure as drawn.

Assays:
E. coli ATCC 25922 = assay: MIC assay (CLSI broth microdilution), AECO001; assay type: cell-based; conditions: AECO001 is ATCC25922 (E. coli), Mueller Hinton Broth, 35 C, 20 hours; for MIC: Escherichia coli
Procedure: (§1) Minimum inhibitory concentrations (MIC) were determined by reference Clinical and Laboratory Standards Institute (CLSI) broth microdilution methods per M7-A7 [2006]. Quality control ranges utilizing E. coli ATCC 25922, P. aeruginosa ATCC 27853 and S. aureus ATCC 29213, and interpretive criteria for comparator agents were as published in CLSI M100-S17 [2007]. Briefly, serial two-fold dilutions of the test compounds were prepared at 2× concentration in Mueller Hinton Broth. The compound dilutions were mixed in 96-well assay plates in a 1:1 ratio with bacterial inoculum. The inoculum was prepared by suspension of a colony from an agar plate that was prepared the previous day. Bacteria were suspended in sterile saline and added to each assay plate to obtain a final concentration of 5×10^5 CFU/mL. The plates were incubated at 35 C for 20 hours in ambient air.

P. aeruginosa ATCC 27853 = assay: MIC assay (CLSI broth microdilution), APAE001; assay type: cell-based; conditions: APAE001 is ATCC27853 (P. aeruginosa), Mueller Hinton Broth, 35 C, 20 hours; for MIC: Pseudomonas aeruginosa
Procedure: as §1

MIC (E. coli ATCC 25922) [µg/mL] | MIC (P. aeruginosa ATCC 27853) [µg/mL] | Compound | MIC AECO001 (E. coli ATCC 25922) | MIC APAE001 (P. aeruginosa ATCC 27853)
1 to 16 (≈ 1.53 to 24.5 µM) | > 16 | NCC[C@H](O)C(=O)N[C@@H]1C[C@H](N)[C@@H](O[C@H]2O[C@H](CO)CC[C@H]2N)[C@H](O[C@@H]2O[C@H](CO)[C@@H](O[C@H]3O[C@@H](CN)CC[C@H]3N)[C@H]2O)[C@H]1O [Example 1/Compound 16, 3′,4′,3′″,4′″-tetradeoxy-1-(4-amino-2(S)-hydroxy-butyryl)-paromomycin] |  | 
1 to 16 (≈ 1.81 to 29 µM) | > 16 | NC[C@H]1CC[C@@H](N)[C@@H](O[C@H]2[C@@H](O)[C@H](O[C@@H]3[C@@H](O)[C@H](N)C[C@H](N)[C@H]3O[C@H]3O[C@H](CO)CC[C@H]3N)O[C@@H]2CO)O1 [Example 2/Compound 8] |  | 
≤ 1 | ≤ 1 | NC[C@@H]1CC[C@@H](N)[C@@H](O[C@H]2[C@H](O[C@@H]3O[C@H](CO)[C@@H](O[C@H]4O[C@@H](CN)CC[C@H]4N)[C@H]3O)[C@@H](O)[C@H](N)C[C@@H]2N)O1 [Example 3/Compound 6, 3′,4′,3′″,4′″-tetra-deoxy-neomycin] |  | 
1 to 16 (≈ 1.53 to 24.5 µM) | ≤ 1 | NCC[C@H](O)C(=O)N[C@@H]1C[C@H](N)[C@@H](O[C@H]2O[C@H](CN)CC[C@H]2N)[C@H](O[C@@H]2O[C@H](CO)[C@@H](O[C@H]3O[C@@H](CN)CC[C@H]3N)[C@H]2O)[C@H]1O [Example 4/Compound 5, 3′,4′,3′″,4′″-tetra-dehydro-1-(4-amino-2(S)-hydroxy-butyryl)-neomycin] |  | 
1 to 16 (≈ 1.54 to 24.7 µM) | ≤ 1 | NCC[C@H](O)C(=O)N[C@@H]1C[C@H](N)[C@@H](O[C@H]2O[C@H](CN)C=C[C@H]2N)[C@H](O[C@@H]2O[C@H](CO)[C@@H](O[C@H]3O[C@@H](CN)C=C[C@H]3N)[C@H]2O)[C@H]1O [Example 5/Compound 7] |  | 
1 to 16 (≈ 1.53 to 24.5 µM) | 1 to 16 (≈ 1.53 to 24.5 µM) | NCC[C@H](O)C(=O)N[C@@H]1C[C@H](N)[C@@H](O[C@H]2O[C@H](CN)CC[C@H]2N)[C@H](O[C@@H]2O[C@H](CO)[C@@H](O[C@H]3O[C@H](CN)CC[C@H]3N)[C@H]2O)[C@H]1O [Example 6/Compound 9] |  | 
1 to 16 (≈ 1.49 to 23.8 µM) | ≤ 1 | NCCCS(=O)(=O)N[C@@H]1C[C@H](N)[C@@H](O[C@H]2O[C@H](CN)CC[C@H]2N)[C@H](O[C@@H]2O[C@H](CO)[C@@H](O[C@H]3O[C@@H](CN)CC[C@H]3N)[C@H]2O)[C@H]1O [Example 7/Compound 4] |  | 
1 to 16 (≈ 1.69 to 27 µM) | 1 to 16 (≈ 1.69 to 27 µM) | CC(=O)N[C@@H]1C[C@H](N)[C@@H](O[C@H]2O[C@H](CN)CC[C@H]2N)[C@H](O[C@@H]2O[C@H](CO)[C@@H](O[C@H]3O[C@@H](CN)CC[C@H]3N)[C@H]2O)[C@H]1O [Example 8/Compound 3] |  | 
≤ 1 | ≤ 1 | NC[C@@H]1CC[C@@H](N)[C@@H](O[C@H]2[C@H](O[C@@H]3O[C@H](CO)[C@@H](O[C@H]4O[C@@H](CN)CC[C@H]4N)[C@H]3O)[C@@H](O)[C@H](NC(=O)C3(O)CC(N)C3)C[C@@H]2N)O1 (stereo partly drawn) [Example 9/Compound 4] |  | 
1 to 16 (≈ 1.57 to 25.1 µM) | ≤ 1 | NC[C@@H]1CC[C@@H](N)[C@@H](O[C@H]2[C@H](O[C@@H]3O[C@H](CO)[C@@H](O[C@H]4O[C@@H](CN)CC[C@H]4N)[C@H]3O)[C@@H](O)[C@H](NC(=O)[C@@H](O)CN)C[C@@H]2N)O1 [Example 13/Compound 4, 3′,4′,3′″,4′″-tetra-deoxy-1-(2(S)-hydroxy-3-amino-propionyl)-neomycin] |  | 
1 to 16 (≈ 1.68 to 26.9 µM) | 1 to 16 (≈ 1.68 to 26.9 µM) | NC[C@@H]1CC[C@@H](N)[C@@H](O[C@H]2[C@H](O[C@@H]3O[C@H](CO)[C@@H](O[C@H]4O[C@@H](CN)CC[C@H]4N)[C@H]3O)[C@@H](O)[C@H](NCCO)C[C@@H]2N)O1 [Example 15/Compound 3, 3′,4′,3′″,4′″-tetra-deoxy-1-(2-hydroxyethyl)-neomycin] |  | 
1 to 16 (≈ 1.44 to 23.1 µM) | ≤ 1 | N=C(N)NCC[C@H](O)C(=O)N[C@@H]1C[C@H](N)[C@@H](O[C@H]2O[C@H](CN)CC[C@H]2N)[C@H](O[C@@H]2O[C@H](CO)[C@@H](O[C@H]3O[C@@H](CN)CC[C@H]3N)[C@H]2O)[C@H]1O [Example 17/Compound 4, 3′,4′,3′″,4′″-tetra-deoxy-1-(2(S)-hydroxy-4-guanidino-butyryl)-neomycin] |  | 
1 to 16 (≈ 1.65 to 26.3 µM) | 1 to 16 (≈ 1.65 to 26.3 µM) | NCC(=O)N[C@@H]1C[C@H](N)[C@@H](O[C@H]2O[C@H](CN)CC[C@H]2N)[C@H](O[C@@H]2O[C@H](CO)[C@@H](O[C@H]3O[C@@H](CN)CC[C@H]3N)[C@H]2O)[C@H]1O [Example 19/Compound 3, 3′,4′,3′″,4′″-tetra-deoxy-1-(2-aminoacetyl)-neomycin] |  | 
1 to 16 (≈ 1.57 to 25.1 µM) | 1 to 16 (≈ 1.57 to 25.1 µM) | NC[C@@H]1CC[C@@H](N)[C@@H](O[C@H]2[C@H](O[C@@H]3O[C@H](CO)[C@@H](O[C@H]4O[C@@H](CN)CC[C@H]4N)[C@H]3O)[C@@H](O)[C@H](NC(=O)[C@@H](N)CO)C[C@@H]2N)O1 [Example 20/Compound 3, 3′,4′,3′″,4′″-tetra-deoxy-1-(2(S)-amino-3-hydroxy-propionyl)-neomycin] |  | 
≤ 1 | ≤ 1 | NC[C@@H]1CC[C@@H](N)[C@@H](O[C@H]2[C@H](O[C@@H]3O[C@H](CO)[C@@H](O[C@H]4O[C@@H](CN)CC[C@H]4N)[C@H]3O)[C@@H](O)[C@H](NC(=O)[C@@H](O)[C@H](F)CN)C[C@@H]2N)O1 [Example 24/Compound 8, 3′,4′,3′″,4′″-tetra-deoxy-1-(4-amino-3(R)-fluoro-2(R)-hydroxy-butyryl)-neomycin] |  | 

Further lines, the compound ahead of its results:

Compound | MIC (E. coli ATCC 25922) [µg/mL] | MIC (P. aeruginosa ATCC 27853) [µg/mL] | MIC AECO001 (E. coli ATCC 25922) | MIC APAE001 (P. aeruginosa ATCC 27853)
3′,4′,3′″,4′″-tetra-deoxy-1-(3-amino-propionyl)-neomycin [Example 14/Compound 4] |  |  | B (MIC's of greater than 1.0 μg/mL to 16.0 μg/mL = B) | B (MIC's of greater than 1.0 μg/mL to 16.0 μg/mL = B)
NC[C@@H]1CC[C@@H](N)[C@@H](O[C@H]2[C@H](O[C@@H]3O[C@H](CO)[C@@H](O[C@H]4O[C@@H](CN)CC[C@H]4N)[C@H]3O)[C@@H](O)[C@H](NC(=O)C3(O)CNC3)C[C@@H]2N)O1 [Example 10/Compound 4] | ≤ 1 | ≤ 1 |  | 
NC[C@@H]1CC[C@@H](N)[C@@H](O[C@H]2[C@H](O[C@@H]3O[C@H](CO)[C@@H](O[C@H]4O[C@@H](CN)CC[C@H]4N)[C@H]3O)[C@@H](O)[C@H](NCCC(N)=O)C[C@@H]2N)O1 [Example 11/Compound 3, 3′,4′,3′″,4′″-tetra-deoxy-1-(3-propionamide)-neomycin] | 1 to 16 (≈ 1.61 to 25.7 µM) | 1 to 16 (≈ 1.61 to 25.7 µM) |  | 
NCC(O)CN[C@@H]1C[C@H](N)[C@@H](O[C@H]2O[C@H](CN)CC[C@H]2N)[C@H](O[C@@H]2O[C@H](CO)[C@@H](O[C@H]3O[C@@H](CN)CC[C@H]3N)[C@H]2O)[C@H]1O (stereo partly drawn) [Example 12/Compound 3, 3′,4′,3′″,4′″-tetra-deoxy-1-(2-hydroxy-3-amino-propyl)-neomycin] | 1 to 16 (≈ 1.6 to 25.7 µM) | ≤ 1 |  | 
N#CCCC(=O)N[C@@H]1C[C@H](N)[C@@H](O[C@H]2O[C@H](CN)CC[C@H]2N)[C@H](O[C@@H]2O[C@H](CO)[C@@H](O[C@H]3O[C@@H](CN)CC[C@H]3N)[C@H]2O)[C@H]1O [Example 14/Compound 3, 3′,4′,3′″,4′″-tetra-deoxy-1-(3-cyano-propionyl)-neomycin] | 1 to 16 (≈ 1.58 to 25.3 µM) | > 16 |  | 
NC[C@@H]1CC[C@@H](N)[C@@H](O[C@H]2[C@H](O[C@@H]3O[C@H](CO)[C@@H](O[C@H]4O[C@@H](CN)CC[C@H]4N)[C@H]3O)[C@@H](O)[C@H](NCc3cccc(O)c3)C[C@@H]2N)O1 [Example 16/Compound 3, 3′,4′,3′″,4′″-tetra-deoxy-1-(3-hydroxybenzyl)-neomycin] | 1 to 16 (≈ 1.52 to 24.4 µM) | 1 to 16 (≈ 1.52 to 24.4 µM) |  | 
NC[C@@H]1CC[C@@H](N)[C@@H](O[C@H]2[C@H](O[C@@H]3O[C@H](CO)[C@@H](O[C@H]4O[C@@H](CN)CC[C@H]4N)[C@H]3O)[C@@H](O)[C@H](NCC(O)CO)C[C@@H]2N)O1 (stereo partly drawn) [Example 18/Compound 3, 3′,4′,3′″,4′″-tetra-deoxy-1-(2,3-bis-hydroxy-propyl)-neomycin] | 1 to 16 (≈ 1.6 to 25.6 µM) | ≤ 1 |  | 
NC[C@@H]1CC[C@@H](N)[C@@H](O[C@H]2[C@H](O[C@@H]3O[C@H](CO)[C@@H](O[C@H]4O[C@@H](CN)CC[C@H]4N)[C@H]3O)[C@@H](O)[C@H](NC(CO)CO)C[C@@H]2N)O1 [Example 21/Compound 3, 3′,4′,3′″,4′″-tetra-deoxy-1-(2-hydroxy-1-hydroxymethyl-ethyl)-neomycin] | 1 to 16 (≈ 1.6 to 25.6 µM) | 1 to 16 (≈ 1.6 to 25.6 µM) |  | 
NCCN(O)C(=O)N[C@@H]1C[C@H](N)[C@@H](O[C@H]2O[C@H](CN)CC[C@H]2N)[C@H](O[C@@H]2O[C@H](CO)[C@@H](O[C@H]3O[C@@H](CN)CC[C@H]3N)[C@H]2O)[C@H]1O [Example 22/Compound 6] | ≤ 1 | ≤ 1 |  | 
NCCS(=O)(=O)N[C@@H]1C[C@H](N)[C@@H](O[C@H]2O[C@H](CN)CC[C@H]2N)[C@H](O[C@@H]2O[C@H](CO)[C@@H](O[C@H]3O[C@@H](CN)CC[C@H]3N)[C@H]2O)[C@H]1O [Example 23/Compound 4, 3′,4′,3′″,4′″-tetra-deoxy-1-(2-amino-ethylsulfonamide)-neomycin] | 1 to 16 (≈ 1.52 to 24.3 µM) |  |  | 
NC[C@@H]1CC[C@@H](N)[C@@H](O[C@H]2[C@H](O[C@@H]3O[C@H](CO)[C@@H](O[C@H]4O[C@@H](CN)CC[C@H]4N)[C@H]3O)[C@@H](O)[C@H](NC(=O)[C@H](O)[C@@H](F)CN)C[C@@H]2N)O1 [Example 25/Compound 8, 3′,4′,3′″,4′″-tetra-deoxy-1-(4-amino-3(S)-fluoro-2(S)-hydroxy-butyryl)-neomycin] | ≤ 1 | ≤ 1 |  | 
